From patent US5552405A, “Substituted pyrrolidine derivatives as HIV protease inhibitors” (Bio-Mega/Boehringer Ingelheim Research, Inc., priority 1995, dated 1996)

Key:
HIV protease = target: T1, HIV protease (Human immunodeficiency virus type 1 group M subtype B, UniProt P04585); experiment: Recombinant HIV Protease HPLC Assay; assay type: biochemical; conditions: recombinant HIV protease expressed in E. coli; substrate VSFNFPQITL-NH2; pH 5.5; 37°, 30 min; read-out: IC50, concentration of the test compound which causes a 50% inhibition of the HIV-protease
T1 construct: HIV protease was expressed in E. coli; made in house; host or cells: E. coli
Excerpt: The procedure is based on the capacity of the test compound to inhibit enzymatic cleavage by HIV protease of a decapeptide (the substratel having an amino acid sequence which includes a known HIV protease cleavage site of a HIV polyprotein; see H. G. Krausslich et al., Proc. Natl. Acad. Sci. U.S.A., 86, 807 (1989). Details of this assay together with the results obtained for exemplified compounds of formula 1 are described in the examples hereinafter.
Enzyme: HIV protease was expressed in E. coli {construct pBRT1 prt^+, see W. G. Farmerie et al., Science, 236, 305 (1987)}, according to the following protocol: Unless stated otherwise, all solutions are aqueous solutions.
E. coli cells containing the pBRT1 prt^+ plasmid were used to inoculate a seed culture media composed of Luria-Bertani Broth containing 100 μg/mL of ampicillin. Flasks were incubated at 37° under agitation for 17 h. Production flasks containing sterile M9 broth, supplemented with 100 μg/mL of ampicillin, were inoculated at a level of 1% (v/v) using the seed culture described above. Total volume in each production flask was 500 mL in a 2 L Erlenmeyer flask. Flasks were incubated at 37° under agitation until a cell concentration corresponding to an optical density (λ=540 μm) of 0.6 was reached (no dilution). This time span was routinely 3-4 h. Flasks were then supplemented with 5 mM isopropylthiogalactoside (IPTG, Research Organics, Cleveland, Ohio, USA) and incubation was continued until the cell concentration reached an optical density of 0.2 at 16-fold dilution. Flasks were then supplemented with 1 mM phenylmethylsulfonyl fluoride (PMSF) and rapidly chilled to 4°. The bacterial cells were recovered by centrifugation at 4°. The wet pellet was stored at -70°.
All steps below were perfomed at 4° unless otherwise indicated. Thawed cells were mixed with buffer A {50 mM tris(hydroxymethyl)aminoethane HCl (Tris-HCl, pH 7.4); 0.6 mM ethylenediaminetetraacetic acid (EDTA); 0.375M NaCl, 0.2% Nonidet P-40® (BDH Chemicals Ltd., Poole, UK); 1 mM PMSF}, at a ratio of one part cells to nine parts buffer A. Diatomaceous earth (Celite 545® John Manville, Lompoc, Calif. U.S.A.) was added at a ratio of two parts to one part of wet cell weight. The resulting slurry was homogenized at high speed (ca. 20,000 rpm) on a Waring® industrial blender for 8×15 sec. pulses. Cell debris/Celite® was collected by centrifugation and the resulting pellet was extracted with 4.5 parts of buffer A to one part wet solids using the homogenization procedure described above. Supernatants from both homogenization steps were combined and soluble protein was precipitated by the addition of solid (NH4)2 SO4 to yield a final concentration of 75% saturation. This mixture was agitated for 60 min and the precipitate was recovered by centrifugation. The resulting pellet was suspended in buffer B {50 mM Tris-HCl, pH 8; 30 mM NaCl; 1 mM DL-dithiothreitol (DTT); 1 mM EDTA; mM PMSF; 10% glycerol}, and dialyzed for 18 h against the same buffer.
An aliquot of the dialyzed extract containing 150 mg of the protein was loaded onto a Sephadex A25® anion exchange column (Pharmacia, Uppsala, Sweden) with bed dimensions of 70 cm length and 2.5 cm diameter. The sample was eluted isocratically with buffer B at a linear flow rate of 10 cm/h. Fractions containing HIV protease activity (see below for assay description) were combined, and soluble protein was precipitated by the addition of saturated aqueous (NH4)2 SO4 to yield a total (NH4)2 SO4 concentration of 85% saturation. Precipitated protein was removed by centrifugation and the resulting pellet was dissolved in buffer C {50 mM 2-(4-morpholino)ethanesulfonic acid (MES), pH 5.5; 150 mM NaCl; 1 mM DTT; 1 mM EDTA; 10% glycerol}. This preparation was dialyzed for 18 h against buffer C, and then frozen at -70°. All crude extracts were purified by chromatography in aliquots containing 150 mg of protein in the same manner as described above. […]

[1] = system: HIV (H9/HTLV-IIIB) in HTLV-I transformed C8166 cells; experiment: plaque assay, inhibition of HIV (H9/HTLV-IIIB) syncytia formation in C8166 cells; assay type: cell-based; conditions: Human immunodeficiency virus 1, fifty times TCID50, 37°, 72 h, read-out: EC50, concentration of the test compound which causes a 50% inhibition of syncytia formation
Excerpt: Typical of such procedures are those described by S. Harada and N. Yamamoto, Jpn. J. Cancer Res. (Gann), 76, 432 (1985), and S. Harada et al., Science, 229, 563 (1985). An assay based on the latter procedures is described in the examples hereinafter.
The following protocol, used for screening antiviral effects of the compounds of formula 1, is adapted from a plaque assay utilizing HTLV-I transformed cells, previously reported by Harada et al., supra. HTLV-I transformed cells are used because of the rapidity with which HIV will replicate in the cells.
1. The test compound is dissolved in dimethylsulfoxide to a concentration of 5 mg/mL. The resultant solution can be stored at 4° until use.
2. The resultant solution is diluted in RPMI 1640 (Gibco Laboratories, St. Lawrence, Mass., USA) to four times (4×) the final concentration which is to be tested. Once diluted in RPMI 1640, the solution is used in the cell culture assay within 4 h.
3. The 4×solution (50 μL) is added to triplicate wells of a 96 well flat bottomed microtiter plate. RPMI (50 μL) also is added to control wells.
4. C8166 cells (5×10^4) in […] of HEPES-buffered RPMI 1640 (pH=7.2), 10% heat inactivated fetal calf serum (FCS), […] gentamicin (complete media) are added to all wells.
5. Fifty times TCID50 of H9/HTLV-IIIB stock (stored in liquid nitrogen as cell culture supernatant in 50% FCS) in 100 μL of complete media is added to all wells. Infectious titer of virus stocks are as previously determined by end point dilution on C8166 cells. Titer of stocks are stable for 6-12 months when stored at -193°.
6. Microtiter plates are then placed on level shelves of a 37°, 5% CO2 humidified incubator for 72 h.
7. Plates are then removed and centers of syncytia are counted in each well by low power phase contrast light microscopy. […] Control wells should have between 25 and 75 centers of syncytia per well.
8. Percent inhibition of syncytia formation is calculated by the formula: [formula]
The concentration of the test compound which causes a 50% inhibition of syncytia formation, i.e. the EC50, is determined by using the technique of serial dilution of the working solution at step 3 and graphically plotting the observed percent inhibition of syncytia formation against the various concentrations of the test compound.

| Compound | IC50 (HIV protease) | EC50 [1] |
| --- | --- | --- |
| CC(C)[C@H](NC(=O)c1ccc2ccccc2n1)C(=O)N[C@@H](Cc1ccccc1)[C@H](O)CN1C[C@H](SCc2cccnc2)C[C@H]1C(=O)NC(C)(C)C [Table I Entry 11, N-tert-butyl-1-{2(R)-hydroxy-4-phenyl-3(S)-{{N-(2-quinolinylcarbonyl)valyl}amino}butyl}-4(R)-{(3-pyridinylmethyl)thio}pyrrolidine-2(S)-carboxamide] | 12 nM | 480 nM |
| CC(C)(C)NC(=O)[C@@H]1C[C@@H](Cc2ccccc2)CN1C[C@@H](O)[C@H](Cc1ccccc1)NC(=O)[C@H](CC(N)=O)NC(=O)OCc1ccccc1 [Table I Entry 8, 4(R)-Benzyl-1-{3(S)-{{N-(benzyloxycarbonyl)asparaginyl}amino}-2(R)-hydroxy-4-phenylbutyl}-N-tert-butylpyrrolidine-2(S)-carboxamide] | 48 nM | 700 nM |
| CC(C)[C@H](NC(=O)OCc1ccccc1)C(=O)N[C@@H](Cc1ccccc1)[C@H](O)CN1C[C@H](OCc2ccccc2)C[C@H]1C(=O)NC1CC1 [Table I Entry 7, 4(R)-Benzyloxy-1-{3(S)-{{N-(benzyloxycarbonyl)valyl}amino}-2(R)-hydroxy-4-phenylbutyl}-N-cyclopropylpyrrolidine-2(S)-carboxamide] | 100 nM | 900 nM |
| CC(C)(C)NC(=O)[C@@H]1C[C@@H](OCc2ccccc2)CN1C[C@@H](O)[C@H](Cc1ccccc1)NC(=O)[C@H](CC(N)=O)NC(=O)OCc1ccccc1 [Table I Entry 3, 4(R)-Benzyloxy-1-{3(S)-{{N-(benzyloxycarbonyl)asparaginyl}amino}-2(R)-hydroxy-4-phenylbutyl}-N-tert-butylpyrrolidine-2(S)-carboxamide] | 39 nM | 600 nM |
| Cc1cccc(C)c1OCC(=O)N[C@@H](Cc1ccccc1)[C@H](O)CN1C[C@H](SCc2cccnc2)C[C@H]1C(=O)NC(C)(C)C [Entry 14] | 43 nM |  |
| Cc1cccc(C)c1OCC(=O)N[C@@H](Cc1ccccc1)[C@H](O)CN1C[C@H](Sc2ncccn2)C[C@H]1C(=O)NC(C)(C)C [Entry 13] | 4.6 nM |  |
| CC(C)[C@H](NC(=O)c1ccc2ccccc2n1)C(=O)N[C@@H](Cc1ccccc1)[C@H](O)CN1C[C@H](Sc2ncccn2)C[C@H]1C(=O)NC(C)(C)C [Entry 10] | 4.7 nM |  |
| CC(C)[C@H](NC(=O)c1ccc2ccccc2n1)C(=O)N[C@@H](Cc1ccccc1)[C@H](O)CN1C[C@H](Sc2ncccn2)C[C@H]1C(=O)NC(C)(C)C [Table I Entry 10, N-tert-butyl-1-{2(R)-hydroxy-4-phenyl-3(S)-{{N-(2-quinolinylcarbonyl)valyl}amino}butyl}-4(R)-(2-pyrimidinylthio)pyrrolidine-2(S)-carboxamide] |  | 250 nM |
| Cc1cc(O[C@@H]2C[C@@H](C(=O)NC(C)(C)C)N(C[C@@H](O)[C@H](Cc3ccccc3)NC(=O)[C@@H](NC(=O)c3ccc4ccccc4n3)C(C)C)C2)nc(C)n1 [Table I Entry 12, N-tert-butyl-1-{2(R)-hydroxy-4-phenyl-3(S)-{{N-(2-quinolinylcarbonyl)valyl}amino}butyl}-4(R)-{(2,6-dimethyl-4-pyrimidinyl)oxy}pyrrolidine-2(S)-carboxamide] | 9.4 nM | 390 nM |
| CC(C)CO[C@H]1C[C@@H](C(=O)NC(C)(C)C)N(C[C@@H](O)[C@H](Cc2ccccc2)NC(=O)[C@@H](NC(=O)OCc2ccccc2)C(C)C)C1 [Table I Entry 5, 1-{3(S)-{{N-(benzyloxycarbonyl)valyl}amino}-2(R)-hydroxy-4-phenylbutyl}-N-tert-butyl-4(S)-(2-methylpropyloxy)pyrrolidine-2(S)-carboxamide] | 745 nM |  |
| CC(C)(C)NC(=O)[C@@H]1C[C@H](Cc2ccccc2)CN1C[C@@H](O)[C@H](Cc1ccccc1)NC(=O)[C@H](CC(N)=O)NC(=O)OCc1ccccc1 [Table I Entry 9, 4(S)-Benzyl-1-{3(S)-{{N-(benzyloxycarbonyl)asparaginyl}amino}-2(R)-hydroxy-4-phenylbutyl}-N-tert-butylpyrrolidine-2(S)-carboxamide] | 780 nM | 4000 nM |
| CC(C)CO[C@@H]1C[C@@H](C(=O)NC(C)(C)C)N(C[C@@H](O)[C@H](Cc2ccccc2)NC(=O)[C@@H](NC(=O)OCc2ccccc2)C(C)C)C1 [Table I Entry 6, 1-{3(S)-{{N-(benzyloxycarbonyl)valyl}amino}-2(R)-hydroxy-4-phenylbutyl}-N-tert-butyl-4(R)-(2-methylpropyloxy)pyrrolidine-2(S)-carboxamide] | 180 nM | 3000 nM |
| CC(C)(C)NC(=O)[C@@H]1C[C@H](OCc2ccccc2)CN1C[C@@H](O)[C@H](Cc1ccccc1)NC(=O)[C@H](CC(N)=O)NC(=O)OCc1ccccc1 [Table I Entry 4, 4(S)-Benzyloxy-1-{3(S)-{{N-(benzyloxycarbonyl)asparaginyl}amino}-2(R)-hydroxy-4-phenylbutyl}-N-tert-butylpyrrolidine-2(S)-carboxamide] | 300 nM |  |
| Cc1cccc(C)c1OCC(=O)N[C@@H](Cc1ccccc1)[C@H](O)CN1C[C@H](Sc2ncccn2)C[C@H]1C(=O)NC(C)(C)C [Table I Entry 13, N-tert-butyl-1-{3(S)-{{(2,6-dimethylphenoxy)acetyl}amino}-2(R)-hydroxy-4-phenylbutyl}-4(R)-(2-pyrimidinylthio)pyrrolidine-2(S)-carboxamide] |  | 250 nM |
| CC(C)[C@H](NC(=O)OCc1ccccc1)C(=O)N[C@@H](Cc1ccccc1)[C@H](O)CN1C[C@H](OCc2ccccc2)C[C@H]1C(=O)NC(C)(C)C [Entry 2] | 16 nM |  |
